# Assay results as given in patent US5925372A, “Mixed solvent mutually enhanced transdermal therapeutic system” (Novartis Corporation, priority 1991, dated 1999).
# Like-named read-outs stand apart in the source and are kept apart here.
# Columns and labels:
# [1] = Charge state in aqueous solutions; assay type: physicochemical
# [2] = cited from earlier work
# [3] = Flux of nitroglycerin and ethanol through epidermis, with and without membrane (FIGS. 5 and 6); conditions: FIG. 6
# Text: FIG. 5 is a graph of the flux of nitroglycerin across epidermis versus the volume fraction of ethanol in the aqueous ethanol reservoir.
# FIG. 6 is a graph of the flux of nitroglycerin versus the flux of ethanol for two different membrane thicknesses and epidermis as compared to epidermis alone.
# These Examples are based on FIGS. 5 and 6. A 0.65 volume fraction of ethanol is used in the reservoir. The systems have a 10 cm^2 surface area, and use a polyester impermeable backing, a polyurethane membrane, and a silicone adhesive. […] Above a volume fraction of 0.8 ethanol, a safety hazard or transportation law infraction may be incurred with nitroglycerin unless the nitroglycerin is kept below 10%.
# [4] = Fluxes through ethylene vinyl acetate membranes (Table 1); conditions: for Nitroglycerin flux through ethylene vinyl acetate membrane: ethanol:water (7:3) reservoir saturated with nitroglycerin on lactose; for ^3 H2 O flux through ethylene vinyl acetate membrane: ethanol:water (7:3) reservoir
# Experimental: (§1) For convenience purposes, this is measured by placing a portion of membrane or membrane/adhesive laminate in a diffusion cell and filling one side with a 70%, aqueous ethanol. After a period of time the amounts of water and alkanol that have crossed the membrane are determined. Typically, when measuring ethanol flux, the receiver side is water. When measuring water flux, either a) the donor side is ^3 H2 O and the receiver side is water or b) the donor side is water and the receiver side is air.
# [5] = Fluxes of nitroglycerin through skin and ethylene vinyl acetate membranes (Table 2); assay type: in vitro ADME
# [6] = Fluxes of nitroglycerin and ethanol through 32.8% vinyl acetate membrane plus skin with and without silicone face adhesive (Table 3)
# Text: (§2) In current-marketed transdermal devices, the adhesive is typically between 1.5 and 3 mils thick and is on the face of the device.
# [7] = Steady-state flux of progesterone across the epidermis versus volume fraction of ethanol in donor (FIG. 1); assay type: in vitro ADME
# Text: (§3) This Example is based on FIGS. 1-3.
# [8] = Flux of progesterone across membrane and adhesive on human epidermis (FIG. 3); assay type: in vitro ADME; conditions: 1 mil polyurethane membrane and silicone adhesive
# Text: FIG. 3 is a graph of the flux of progesterone across a membrane and adhesive on human epidermis versus volume fraction of ethanol in the aqueous ethanol reservoir.
# as §3
# [9] = cited from earlier work; remark: listed apart in the source
# [10] = cited from earlier work; remark: listed apart in the source
# [11] = assay type: in vitro ADME, human; conditions: 0.7 volume fraction of ethanol; active agent at saturation
# Text: FIG. 4 is a graph of the flux of (±) trans-1,3,4,4a,5,10b-hexahydro-4-propyl-2H-[1]benzopyrano[3,4-b]pyridin-9-ol monohydrochloride, an ionizable drug which is a dopamine autoreceptor agonist, across human epidermis from ethanol: water (7:3) versus pH of that aqueous ethanol solution. In aqueous solutions, the drug is […] charged below pH 6.5.
# This Example is based on FIG. 4 in which the dopamine autoreceptor agonist, (±)trans-1,3,4,4a,5,10b-hexahydro-4-propyl-2H-[1]benzopyrano[3,4-b]pyridin-9-ol, an ionizable drug, permeates skin. For this drug the optimal pH of an ethanol:water donor which is 0.7 volume fraction of ethanol is in the range of 4. A microporous membrane such as a microporous polypropylene and a silicone adhesive may be used. The active agent is present at saturation.
# [12] = Experimental: FIG. 2 is a graph of the steady-state flux of ethanol across human epidermis versus the volume fraction of ethanol in the donor solution.
# This Example is based on FIGS. 1-3. […] The reservoir contains 1.7 ml of ethanol, 0.3 ml water, 200 mg of progesterone as the drug, and 2% Klucel as a gelling agent. […] A volume fraction of 0.85 is chosen to allow for the back flux of water and depletion of ethanol during the use of the system.
# [13] = commercial estradiol system, cited from earlier work
# [14] = cited from earlier work; remark: listed apart in the source
# [15] = Water and ethanol flux through the combined membrane adhesive laminate; conditions: 32.8% vinyl acetate membrane plus 2 mil silicone face adhesive
# Experimental: as §1, §2
smiles,measurement,setting,value
"CCCN1CCC[C@@H]2c3cc(O)ccc3OC[C@H]21.Cl (racemic) [(±) trans-1,3,4,4a,5,10b-hexahydro-4-propyl-2H-[1]benzopyrano[3,4-b]pyridin-9-ol monohydrochloride]",pH below which the drug is negatively charged in aqueous solutions,[1],< 6.5
C#C[C@]1(O)CC[C@H]2[C@@H]3CCC4=CC(=O)CC[C@@H]4[C@H]3CC[C@@]21CC [levonorgestrel],"Flux of levonorgestrel through rat skin, neat versus aqueous ethanol",[2],neat ethanol increases skin permeation better than aqueous ethanol
"O=[N+]([O-])OCC(CO[N+](=O)[O-])O[N+](=O)[O-] [Nitroglycerin, nitroglycerin]",Relation of nitroglycerin flux versus ethanol flux through skin and membrane adhesive laminates,[3],The nitroglycerin follows the ethanol through skin
same,Nitroglycerin flux through ethylene vinyl acetate membrane,[4]; vinyl acetate content 9%,2.4 ± 0.3 mg/h
same,Nitroglycerin flux through ethylene vinyl acetate membrane,[4]; vinyl acetate content 18%,5 ± 0.7 mg/h
same,Nitroglycerin flux through ethylene vinyl acetate membrane,[4]; vinyl acetate content 28%,10 ± 0.5 mg/h
same,Nitroglycerin flux through ethylene vinyl acetate membrane,[4]; vinyl acetate content 40%,21 ± 0.3 mg/h
same,Rate control of nitroglycerin permeation,[5]; 1 mil ethylene/vinyl acetate membranes,the skin controls the rate of nitroglycerin permeation
same,Improvement of nitroglycerin flux through skin over the best of previously disclosed systems,[5]; membranes of higher vinyl acetate content,≤ 2 factor
same,Flux of nitroglycerin through skin and ethylene vinyl acetate membrane,[5]; vinyl acetate content 9%,30 mcg/cm^2 /hr
same,Flux of nitroglycerin through skin and ethylene vinyl acetate membrane,[5]; vinyl acetate content 18%,60 mcg/cm^2 /hr
same,Flux of nitroglycerin through skin and ethylene vinyl acetate membrane,[5]; vinyl acetate content 28%,66 mcg/cm^2 /hr
same,Flux of nitroglycerin through skin and ethylene vinyl acetate membrane,[5]; vinyl acetate content 40%,120 mcg/cm^2 /hr
same,Improvement of nitroglycerin flux by optimization of adhesive and membrane layers,"[6]; 32.8% vinyl acetate membrane, peripheral versus 2 mil silicone face adhesive",more than a factor of two
same,Nitroglycerin flux,"[6]; Membrane alone and skin, 32.8% vinyl acetate membrane, ethanol:water (85:15) reservoir",82 ± 26 mcg/cm^2 /hr
same,Nitroglycerin flux,"[6]; Membrane and adhesive (2 mil silicone face adhesive) and skin, 32.8% vinyl acetate, ethanol:water (85:15) reservoir",37 ± 10 mcg/cm^2 /hr
same,Nitroglycerin flux,[6]; Skin alone from ethanol:water (70:30),85 ± 15 mcg/cm^2 /hr
same,Nitroglycerin flux,[6]; Skin alone without ethanol in donor,15 ± 7 mcg/cm^2 /hr
CC(=O)[C@H]1CC[C@H]2[C@@H]3CCC4=CC(=O)CC[C@]4(C)[C@H]3CC[C@]12C [progesterone],Progesterone flux across epidermis from optimized aqueous ethanol reservoir,[7]; compared to both neat water and neat ethanol,large increase in the flux
same,Volume fraction of ethanol at which progesterone flux through skin is optimized,[7]; not including the drug or gelling agent,0.4-0.85 volume fraction of ethanol
same,Volume fraction of ethanol at optimum of skin permeation with membrane and adhesive,[8],~0.7 volume fraction of ethanol
C[C@]12CC[C@@H]3c4ccc(O)cc4CC[C@H]3[C@@H]1CC[C@@H]2O [estradiol],"Flux of estradiol through hairless mouse skin, neat versus aqueous ethanol",[9],neat ethanol increases skin permeation better than aqueous ethanol
same,Skin permeation of estradiol from neat ethanol versus aqueous ethanol donor solutions,[10],skin permeation from neat ethanol is as good or better than from aqueous ethanol donor solutions
"CCCN1CCC[C@@H]2c3cc(O)ccc3OC[C@H]21 (racemic) [(±)trans-1,3,4,4a,5,10b-hexahydro-4-propyl-2H-[1]benzopyrano[3,4-b]pyridin-9-ol]",Optimal pH of ethanol:water donor for skin permeation,[11],~4
"CCO [Ethanol, ethanol]",Volume fraction of ethanol at which ethanol flux through skin is optimized,[12],0.4-0.85 volume fraction of ethanol
same,Dependence of permeation on vinyl acetate content,[4],increase with vinyl acetate content
same,Ethanol permeability of rate-limiting membrane,[13]; neat ethanol gel reservoir,~400 mcg/cm^2 /hr
O=C(O)c1ccccc1O [salicylic acid],"Flux of salicylic acid through human skin, neat versus aqueous ethanol",[14],neat ethanol increases skin permeation better than aqueous ethanol
"[3H]O[3H] [^3 H2 O, tritiated water]",Dependence of permeation on vinyl acetate content,[4]; until reservoir composition of ethanol and water is delivered to skin surface,increase with vinyl acetate content
same,^3 H2 O flux through ethylene vinyl acetate membrane,[4]; vinyl acetate content 9%,0.5 mg/h
same,^3 H2 O flux through ethylene vinyl acetate membrane,[4]; vinyl acetate content 18%,4 ± 0.3 mg/h
same,^3 H2 O flux through ethylene vinyl acetate membrane,[4]; vinyl acetate content 28%,17 ± 3 mg/h
same,^3 H2 O flux through ethylene vinyl acetate membrane,[4]; vinyl acetate content 40%,63 ± 9 mg/h
same,Tritiated water flux through combined membrane adhesive laminate,[15],smaller than the range disclosed by this invention
O [water],Water permeability of rate-limiting membrane,[13],relatively impermeable to water
